{
  "source": "paper PMC8400394",
  "about": "“Adsorption of Recombinant Human β-Defensin 2 and Two Mutants on Mesoporous Silica Nanoparticles and Its Effect against Clavibacter michiganensis subsp. michiganensis” (Nanomaterials, 2021)",
  "format_in_all_cases": "cell-based, Clavibacter michiganensis subsp. michiganensis",
  "key": {"Cmm [1]": {"test_system": "Cmm", "test": "Determination of IC50 of the recombinant AMPs", "settings": "Cmm in MHB, minimum concentration of AMP that inhibits 50% of the growth", "method": "(§1) Cmm was cultivated in Mueller-Hinton broth (MHB) at […] for 16 h at 180 rpm. Employing 0.5 mL of the previous culture, 50 mL of fresh MHB were inoculated. The culture was maintained under the conditions mentioned above until the OD600 reached 0.2–0.3. 9.5 mL of MHB agar prewarmed to 37 °C were added to 0.5 mL of the culture. It was homogenized and then poured onto a Petri dish containing MHB agar to form a uniform layer of 2 mm. Once the surface was dry, different volumes (5, 10 and 15 μL) of the defensins under study (50 μM) were added to the surface. The plates were incubated for 24 h at 28 °C, then the formed inhibition halos were measured. CH3COOH (acid acetic)10 mM pH 2.4 and Tris 50 mM pH 8.4 were used both as negative controls. The IC50 was determined based on that reported by Tay and Liu. This measurement was defined as the minimum concentration of AMP that is required to inhibit 50% of the growth of Cmm."}, "Cmm [2]": {"test_system": "Cmm", "test": "Antimicrobial activity of AMPs by the plaque diffusion method", "settings": "plaque diffusion on MHB agar with Cmm; 5, 10 and 15 μL of 50 μM; CH3COOH 10 mM pH 2.4 and Tris 50 mM pH 8.4; 24 h, 28 °C; triplicate", "method": "as §1"}, "Cmm [3]": {"test_system": "Cmm", "test": "Effect of pepsin on AMPs and MSN/AMPs complexes (growth of Cmm after protease treatment)", "settings": "AMPs (1 mg/mL) treated with pepsin (1 mg/mL), 5:1 peptide:enzyme; then Cmm culture 28 °C, 24 h; CFU count; duplicate", "method": "After removing the supernatant and drying the MSN/AMP complexes, 200 µL of the pepsin (1 mg/mL) were added and incubated at 37 °C for 16 h under constant shaking. The microtubes were then centrifuged at 5000× g for 10 min at 4 °C. The resulting pellet was washed twice with deionized water and centrifuged at 5000× g for 10 min at 4 °C between each wash. MSN/AMPs complexes were resuspended in 3 mL of diluted Cmm culture and incubated at 28 °C for 24 h at 180 rpm. After the incubation period, serial dilutions were performed up to 1 × 10^6 of which 100 µL were taken and Petri dishes were poured with 30 mL MHB medium. The plates were incubated at 28 °C for 72 h and the colonies were counted, bacterial growth was expressed as CFU/mL. Controls were prepared with MSN (5 mg/mL) in PBS and AMPs (1 mg/mL) treated with protease (1 mg/mL) in a 5:1 ratio (peptide:enzyme). The experiments for this assay were performed by duplicate."}, "Cmm [4]": {"test_system": "Cmm", "test": "Antimicrobial activity of MSN/AMPs complexes in solid medium", "settings": "plaque diffusion on MHB with Cmm; 5, 10, 15 µL; 24 h, 28 °C; MSN 5 mg/mL, AMPs 0.5 mg/mL; triplicate", "method": "The antimicrobial activity of the MSN/AMPs complexes was evaluated both in solid and liquid media. For the solid medium, the adsorption process was carried out as described in the previous section. The pellet was resuspended in PBS (1 mL). Afterwards, different volumes of the MSN/AMPs mixture were deposited onto Petri dishes with MHB medium and Cmm (see antimicrobial activity test section and IC50 determination). The plates were incubated for 24 h at 28 °C, the diameter of the inhibition halos was measured. MSN (5 mg/mL) and AMPs (0.5 mg/mL) were employed as controls. These experiments were performed by triplicates."}},
  "data": [
    {"substance": "human β-defensin-2 [hβD2]", "values": [
      {"measurement": "IC50", "setting": "Cmm [1]; AMP in CH3COOH 10 mM pH 2.4", "result": "3.64 ± 0.33", "unit": "µg/mL"},
      {"measurement": "IC50", "setting": "Cmm [1]; AMP in Tris 50 mM pH 8.4", "result": "3.61 ± 0.47", "unit": "µg/mL"},
      {"measurement": "antimicrobial activity (inhibition halos)", "setting": "Cmm [2]", "result": "exhibited inhibition halos"},
      {"measurement": "Cmm growth inhibition after pepsin treatment, AMPs without the mesoporous matrix", "setting": "Cmm [3]", "result": 99.98, "unit": "%"},
      {"measurement": "antimicrobial activity in solid medium (inhibition halos)", "setting": "Cmm [4]", "result": "greater inhibition than MNS/hβD2"}
    ]}
  ]
}
